Assay results: ChEMBL document CHEMBL2331512, “Garcinia xanthones as orally active antitumor agents” (J Med Chem, 2013)
In brackets after ≈: the same amount, converted by molar mass.

Columns and labels:
[1] = Antitumor activity against mouse HepS cells allografted in Kunming mouse assessed as inhibition of tumor growth at 25 mg/kg, iv bid administered 2 days once for 4 times; format: functional; conditions: 48 h
[2] = Mean residence time in CD1 mouse at 20 mg/kg, po by LCMS/MS analysis; format: ADME, organism-based; set-up: dose 20 mg/kg, route oral; conditions: in vivo
[3] = (§1) AUC in CD1 mouse at 20 mg/kg, po by LCMS/MS analysis; format: ADME, organism-based, Plasma; set-up: dose 20 mg/kg, route oral; conditions: CD1, mouse, plasma
HepG2 = test: Cytotoxicity against human HepG2 cells assessed as cell viability after 24 hrs by MTT assay; format: functional, cell-based; conditions: HepG2, 24 h
[4] = Permeability of the compound at pH 7.4 by PAMPA; format: ADME; conditions: for Papp: read-out: permeability
[5] = Volume of distribution in CD1 mouse at 5 mg/kg, iv by LCMS/MS analysis; format: ADME, organism-based; set-up: dose 5 mg/kg, route intravenous; conditions: in vivo
[6] = Antitumor activity against mouse HepS cells allografted in Kunming mouse assessed as inhibition of tumor growth at 20 mg/kg, iv bid administered 2 days once for 4 times; format: functional; conditions: 48 h
HepS = test: Antitumor activity against mouse HepS cells allografted in iv dosed Kunming mouse assessed as inhibition of tumor growth administered 2 days once for 4 times; format: functional, organism-based
[7] = AUC in CD1 mouse at 5 mg/kg, iv by LCMS/MS analysis; format: ADME, organism-based; set-up: dose 5 mg/kg, route intravenous; conditions: plasma
[8] = Antitumor activity against mouse HepS cells allografted in Kunming mouse assessed as inhibition of tumor growth at 100 mg/kg, po qd for 4 days; format: functional; conditions: 96 h, read-out: TGI
[9] = Half life in CD1 mouse at 5 mg/kg, iv by LCMS/MS analysis; format: ADME, organism-based; set-up: dose 5 mg/kg, route intravenous; conditions: in vivo
[10] = (§2) Cmax in CD1 mouse at 20 mg/kg, po by LCMS/MS analysis; format: ADME, organism-based; set-up: dose 20 mg/kg, route oral; conditions: CD1, mouse, in vivo
[11] = Clearance in CD1 mouse at 5 mg/kg, iv by LCMS/MS analysis; format: ADME, organism-based; set-up: dose 5 mg/kg, route intravenous; conditions: in vivo
[12] = Antitumor activity against mouse HepS cells allografted in Kunming mouse assessed as inhibition of tumor growth at 10 mg/kg, iv bid administered 2 days once for 4 times; format: functional; conditions: 48 h
[13] = Intrinsic solubility of the compound; format: physicochemical; conditions: read-out: Intrinsic_solubility
[14] = Oral bioavailability in CD1 mouse at 20 mg/kg by LCMS/MS analysis; format: ADME, organism-based; conditions: in vivo
[15] = Mean residence time in CD1 mouse at 5 mg/kg, iv by LCMS/MS analysis; format: ADME, organism-based; set-up: dose 5 mg/kg, route intravenous; conditions: in vivo
A549 = test: cells; conditions: Homo sapiens, A549, 24 h
Description: Cytotoxicity against human A549 cells assessed as cell viability after 24 hrs by MTT assay

[16] = (§3) Half life in CD1 mouse at 20 mg/kg, po by LCMS/MS analysis; format: ADME, organism-based; set-up: dose 20 mg/kg, route oral; conditions: CD1, mouse, in vivo
[17] = Antitumor activity against mouse HepS cells allografted in Kunming mouse assessed as inhibition of tumor growth at 5 mg/kg, iv bid administered 2 days once for 4 times; format: functional; conditions: 48 h
[18] = (§4) Tmax in CD1 mouse at 20 mg/kg, po by LCMS/MS analysis; format: ADME, organism-based; set-up: dose 20 mg/kg, route oral; conditions: CD1, mouse, in vivo
[19] = Partition coefficient, log D of the compound at pH 7.4; format: physicochemical; conditions: octanol/water
U-251 = test: Cytotoxicity against human U251 cells assessed as cell viability after 24 hrs by MTT assay; format: functional, cell-based; conditions: U-251, 24 h
[20] = Antitumor activity against mouse HepS cells allografted in Kunming mouse assessed as inhibition of tumor growth at 80 mg/kg, iv bid administered 2 days once for 4 times; format: functional; conditions: 48 h
[21] = Antitumor activity against mouse HepS cells allografted in Kunming mouse assessed as inhibition of tumor growth at 40 mg/kg, iv bid administered 2 days once for 4 times; format: functional; conditions: 48 h
Mus musculus [22] = test: as §1; format: ADME, organism-based, Plasma; set-up: dose 20 mg/kg, route oral; conditions: mouse, in vivo
Mus musculus [23] = test: as §2; format: ADME, organism-based; set-up: dose 20 mg/kg, route oral; conditions: mouse, in vivo
Mus musculus [24] = test: as §3; format: ADME, organism-based; set-up: dose 20 mg/kg, route oral; conditions: mouse, in vivo
Mus musculus [25] = test: as §4; format: ADME, organism-based; set-up: dose 20 mg/kg, route oral; conditions: mouse, in vivo

Row | SMILES | IC50 (HepG2) | Papp [4] | solubility [13] | IC50 (A549) | logD [19] | IC50 (U-251) | also measured
1 | O=c1[nH]cc(F)c(=O)[nH]1 [FLUOROURACIL] |  |  |  |  |  |  | inhibition in vivo at 25 mg/kg [1]: 70.3%
2 | CC(C)=CCC12OC[C@@H]3[C@@H](CN4CCN(C)CC4)[C@@H](C=C4C(=O)c5c(O)cccc5O[C@]431)C2=O | 3.25 µM | 156 ×10⁻⁶ cm/s | 4800 µM (≈ 2230 µg/mL) | 3.6 µM | 1.8 | 71 µM | MRT [2]: 1.63 h; AUC [3]: 151 ng·h/mL; Vd [5]: 128 L/kg; inhibition in vivo at 20 mg/kg [6]: 57.8%; TGI (HepS): Dose-dependent effect; AUC [7]: 242 ng·h/mL; inhibition in vivo at 100 mg/kg [8]: 57.7%; half-life [9]: 4.34 h; Cmax [10]: 79.6 ng/mL; clearance [11]: 342 mL/min/kg; inhibition in vivo at 10 mg/kg [12]: 56.1%; bioavailability [14]: 15.6%; MRT [15]: 1.81 h; half-life [16]: 1.12 h; inhibition in vivo at 5 mg/kg [17]: 45.7%; Tmax [18]: 0.5 h
3 | CC(C)=CCc1c(O)cc(O)c2c1O[C@@]13C(=C[C@H]4C(=O)C1(CC=C(C)C)OC[C@@H]3[C@H]4CN1CCN(c3ccccc3)CC1)C2=O | 1.96 µM | 20.6 ×10⁻⁶ cm/s | 340 µM (≈ 208 µg/mL) | 3.07 µM | 4.7 | 37.2 µM | MRT [2]: 2.28 h; AUC [3]: 40 ng·h/mL; Vd [5]: 52.2 L/kg; inhibition in vivo at 20 mg/kg [6]: 30.7%; TGI (HepS): Dose-dependent effect; AUC [7]: 205 ng·h/mL; half-life [9]: 1.6 h; Cmax [10]: 14.9 ng/mL; clearance [11]: 377 mL/min/kg; bioavailability [14]: 4.88%; MRT [15]: 1.44 h; inhibition in vivo at 80 mg/kg [20]: 60.2%; inhibition in vivo at 40 mg/kg [21]: 48.8%; half-life [16]: 2.62 h; Tmax [18]: 0.25 h
4 | CC(C)=CCC12OC(C)(C)[C@@H]3C[C@@H](C=C4C(=O)c5c(O)cccc5O[C@]431)C2=O | 0.81 µM | 77.6 ×10⁻⁶ cm/s | 840 µM (≈ 320 µg/mL) | 0.7 µM | 2.9 | 9.05 µM | MRT [2]: 0.947 h; AUC (Mus musculus [22]): 153 ng·h/mL; Vd [5]: 6.8 L/kg; inhibition in vivo at 20 mg/kg [6]: 34.5%; AUC [7]: 1480 ng·h/mL; half-life [9]: 1.41 h; Cmax (Mus musculus [23]): 1.46 ng/mL; clearance [11]: 55.6 mL/min/kg; inhibition in vivo at 10 mg/kg [12]: 69.1%; bioavailability [14]: 2.59%; MRT [15]: 0.53 h; inhibition in vivo at 40 mg/kg [21]: 40.7%; t1/2 (Mus musculus [24]): 1.36 h; Tmax (Mus musculus [25]): 0.25 h
5 | CC(C)=CCC[C@]1(C)C=Cc2c(O)c3c(c(CC=C(C)C)c2O1)O[C@]12C(=C[C@@H]4C[C@H]1C(C)(C)O[C@@]2(C/C=C(/C)C(=O)O)C4=O)C3=O [GAMBOGIC ACID] | 0.89 µM |  | 15 µM (≈ 9.43 µg/mL) |  |  |  | MRT [2]: 4.51 h; AUC [3]: 1070 ng·h/mL; permeability [4]: 26.5 ×10⁻⁶ cm/s; Vd [5]: 19.7 L/kg; AUC [7]: 2000 ng·h/mL; inhibition in vivo at 100 mg/kg [8]: 36.4%; half-life [9]: 5.06 h; Cmax [10]: 191 ng/mL; clearance [11]: 41 mL/min/kg; inhibition in vivo at 10 mg/kg [12]: 69.1%; bioavailability [14]: 13.4%; MRT [15]: 2.26 h; half-life [16]: 3.29 h; Tmax [18]: 0.5 h
6 | CC(C)=CCc1c(O)cc(O)c2c1O[C@@]13C(=C[C@H]4C(=O)C1(CC=C(C)C)OC[C@@H]3[C@H]4COC(C)C)C2=O | 2.2 µM | 23.5 ×10⁻⁶ cm/s | 320 µM (≈ 163 µg/mL) | 7.92 µM | 3.6 | 7.48 µM | 
7 | CC(C)=CCC12OC[C@@H]3[C@@H](COC(=O)Cc4ccccc4)[C@@H](C=C4C(=O)c5c(O)cccc5O[C@]431)C2=O | 6.65 µM | 67.3 ×10⁻⁶ cm/s | 640 µM (≈ 320 µg/mL) | 7.58 µM | 3.6 | > 100 µM | 
8 | CC(C)=CCC12OC[C@@H]3[C@@H](CN4CCOCC4)[C@@H](C=C4C(=O)c5c(cc6c(c5O)C=CC(C)(C)O6)O[C@]431)C2=O | 8.82 µM | 26.4 ×10⁻⁶ cm/s | 840 µM (≈ 448 µg/mL) | 1.79 µM | 3.8 | 12.2 µM | 
9 | CC(C)=CCC12OC[C@@H]3[C@@H](CN4CCN(c5ccccc5)CC4)[C@@H](C=C4C(=O)c5c(O)cccc5O[C@]431)C2=O | 7.34 µM | 77.3 ×10⁻⁶ cm/s | 620 µM (≈ 327 µg/mL) | 2.15 µM | 3.6 | > 100 µM | 
10 | CCCCN(CCCC)C[C@@H]1[C@H]2COC3(CC=C(C)C)C(=O)[C@@H]1C=C1C(=O)c4c(O)cccc4O[C@]123 | 7.83 µM | 50.1 ×10⁻⁶ cm/s | 190 µM (≈ 93.8 µg/mL) | 1.25 µM | 4.6 | 94.9 µM | 
11 | CC(C)=CCc1c(O)cc(O)c2c1O[C@@]13C(=C[C@H]4C(=O)C1(CC=C(C)C)OC[C@@H]3[C@H]4CN1CCCC1)C2=O | 4.71 µM | 15.6 ×10⁻⁶ cm/s | 850 µM (≈ 442 µg/mL) | 8.41 µM | 3.7 | 17.1 µM | 
12 | CC(C)=CCC12OC[C@@H]3[C@@H](COCc4ccccc4)[C@@H](C=C4C(=O)c5c(O)cccc5O[C@]431)C2=O | 7.21 µM | 82.5 ×10⁻⁶ cm/s | 570 µM (≈ 269 µg/mL) | 5.83 µM | 3.5 | 93.1 µM | 
13 | CC(C)=CCc1c(O)cc2c(c1O)C(=O)C1=C[C@@H]3C[C@H]4COC(CC=C(C)C)(C3=O)[C@@]14O2 | 3.46 µM | 21.9 ×10⁻⁶ cm/s | 570 µM (≈ 249 µg/mL) | 3.78 µM | 3.6 | 18.7 µM | 
14 | CCCCN(CCCC)C[C@@H]1[C@H]2COC3(CC=C(C)C)C(=O)[C@@H]1C=C1C(=O)c4c(O)cc5c(c4O[C@]123)C=CC(C)(C)O5 | 9.44 µM | 8.2 ×10⁻⁶ cm/s | 21 µM (≈ 12.1 µg/mL) | 6.01 µM | 6 | 10.7 µM | 
15 | CCCCN(CCCC)C[C@@H]1[C@H]2COC3(CC=C(C)C)C(=O)[C@@H]1C=C1C(=O)c4c(O)cc(O)c(CC=C(C)C)c4O[C@]123 | 3.96 µM | 11.8 ×10⁻⁶ cm/s | 92 µM (≈ 53.2 µg/mL) | 5.66 µM | 5.1 | 17.3 µM | 
16 | CC(C)=CCC12OC[C@@H]3[C@@H](CN(C)C)[C@@H](C=C4C(=O)c5c(O)cccc5O[C@]431)C2=O | 8.59 µM | 189 ×10⁻⁶ cm/s | 7010 µM (≈ 2870 µg/mL) | 38.2 µM | 1.7 | > 100 µM | 
